# From US9949929B2, “Drug carrier and manufacturing method thereof” (National Taiwan University Hospital, priority 2015, dated 2018)
# Tests used:
# cancer cells = assay: cell viability of cancer cells treated with nanomicelles, drug-encapsulating nanomicelles or free Doxorubicin; format: cell-based; set-up: dose or concentration left out as unconfirmed
# From the text: (§1) The drug carriers of example 1 and example 2 are used for preparing nanomicelles and drug-encapsulating nanomicelles so as to undergo the following tests. When preparing the nanomicelles, the dried drug carriers are uniformly dissolved in dimethyl sulfoxide (DMSO) to obtain a drug-carrier-DMSO solution. Next, the dimethyl sulfoxide (DMSO) in the drug-carrier-DMSO solution is removed by lyophilization, and the nanomicelles formed by self-assembly of the drug carriers are left. Last, the nanomicelles are put into a phosphate buffered saline (PBS) and sonicated for 20 min; therefore, the nanomicelles are uniformly dissolved in the phosphate buffered saline (PBS) for the following tests.
# When preparing the drug-encapsulating nanomicelles, the drug molecules selected to be encapsulated in the nanomicelles are Doxorubicin (Doxo). First, the dried drug carriers and Doxorubicin molecules are uniformly dissolved in dimethyl sulfoxide (DMSO) to obtain a drug-carrier-Doxorubicin-DMSO solution. Next, the dimethyl sulfoxide (DMSO) in the drug-carrier-Doxorubicin-DMSO solution is removed by lyophilization, and the drug-encapsulating nanomicelles formed by self-assembly of the drug carriers as well as Doxorubicin crystals which are not encapsulated in the drug-encapsulating nanomicelles are left. […]
# [1] = temperature increase of samples irradiated by near-infrared laser (photothermal); format: physicochemical; conditions: near-infrared laser 1 W/cm^2, 650 nm
# From the text: as §1
# When preparing the drug-encapsulating nanomicelles, the drug molecules selected to be encapsulated in the nanomicelles are Doxorubicin (Doxo). First, the dried drug carriers and Doxorubicin molecules are uniformly dissolved in dimethyl sulfoxide (DMSO) to obtain a drug-carrier-Doxorubicin-DMSO solution. […]
# Please refer to FIG. 5. […] When a temperature increase of samples irradiated by near-infrared light (NIR) is measured, the near-infrared light is a near-infrared laser, and the samples are the phosphate buffered saline (PBS), the Doxorubicin (Doxo), the nanomicelles and the drug-encapsulating nanomicelles which encapsulate the Doxorubicin (Doxo). […]
structure (smiles),measurement,setting,value
"COc1cccc2c1C(=O)c1c(O)c3c(c(O)c1C2=O)C[C@@](O)(C(=O)CO)C[C@@H]3O[C@H]1C[C@H](N)[C@H](O)[C@H](C)O1 [Doxorubicin (Doxo), Doxorubicin]",cell viability of the cancer cell,cancer cells,80%
same,temperature change as irradiation time is increased,[1],no significant change
